Source: ChEMBL document CHEMBL4304811, “Development of a Water-Soluble Indolylmaleimide Derivative IM-93 Showing Dual Inhibition of Ferroptosis and NETosis” (ACS Med Chem Lett, 2019)

Tests used:
[1] = target: Tyrosine-protein kinase Blk (Homo sapiens) (UniProt P51451); experiment: Binding affinity to wild-type human partial length BLK (G211 to L503 residues) expressed in bacterial expression system assessed as residual binding level at 10 uM by Kinomescan method relative to control
[2] = target: Protein-tyrosine kinase 6 (Homo sapiens) (UniProt Q13882); experiment: Binding affinity to wild-type human partial length BRK (L166 to T451 residues) expressed in bacterial expression system assessed as residual binding level at 10 uM by Kinomescan method relative to control
[3] = target: Calcium/calmodulin-dependent protein kinase type 1 (Homo sapiens) (UniProt Q14012); experiment: Binding affinity to wild-type human full length CAMK1 (M1 to L370 residues) expressed in bacterial expression system assessed as residual binding level at 10 uM by Kinomescan method relative to control
[4] = target: Cyclin-dependent kinase 3 (Homo sapiens) (UniProt Q00526); experiment: Binding affinity to wild-type human full length CDK3 (M1 to H305 residues) expressed in bacterial expression system assessed as residual binding level at 10 uM by Kinomescan method relative to control
[5] = target: Macrophage colony-stimulating factor 1 receptor (Homo sapiens) (UniProt P07333); experiment: Binding affinity to wild-type human partial length autoinhibited CSF1R (Y538 to S939 residues) expressed in mammalian expression system assessed as residual binding level at 10 uM by Kinomescan method relative to control
[6] = target: Ephrin type-A receptor 2 (Homo sapiens) (UniProt P29317); experiment: Binding affinity to wild-type human partial length EPHA2 (T593 to V891 residues) expressed in bacterial expression system assessed as residual binding level at 10 uM by Kinomescan method relative to control
[7] = target: Mitogen-activated protein kinase 1 (Homo sapiens) (UniProt P28482); experiment: Binding affinity to wild-type human full length ERK2 (M1 to S360 residues) expressed in bacterial expression system assessed as residual binding level at 10 uM by Kinomescan method relative to control
[8] = test system: Fibroblast growth factor receptor 3 (Homo sapiens), P22607 [G697C]; experiment: Binding affinity to human partial length FGFR3 G697C mutant (R442 to S771 residues) expressed in bacterial expression system assessed as residual binding level at 10 uM by Kinomescan method relative to control
[9] = target: Tyrosine-protein kinase FRK (Homo sapiens) (UniProt P42685); experiment: Binding affinity to wild-type human partial length FRK (A215 to F503 residues) expressed in bacterial expression system assessed as residual binding level at 10 uM by Kinomescan method relative to control
[10] = target: Rhodopsin kinase GRK7 (Homo sapiens) (UniProt Q8WTQ7); experiment: Binding affinity to wild-type human full length GRK7 (M1 to L553 residues) expressed in mammalian expression system assessed as residual binding level at 10 uM by Kinomescan method relative to control
[11] = target: Inhibitor of nuclear factor kappa-B kinase subunit epsilon (Homo sapiens) (UniProt Q14164); experiment: Binding affinity to wild-type human full length IKK-epsilon (M1 to V716 residues) expressed in mammalian expression system assessed as residual binding level at 10 uM by Kinomescan method relative to control
[12] = target: Myosin-IIIb (Homo sapiens) (UniProt Q8WXR4); experiment: Binding affinity to wild-type human partial length MYO3B (M1 to D357 residues) expressed in bacterial expression system assessed as residual binding level at 10 uM by Kinomescan method relative to control
[13] = target: Serine/threonine-protein kinase Nek5 (Homo sapiens) (UniProt Q6P3R8); experiment: Binding affinity to wild-type human partial length NEK5 (M1 to M279 residues) expressed in bacterial expression system assessed as residual binding level at 10 uM by Kinomescan method relative to control
[14] = target: Cyclin-dependent kinase 2 homolog (Plasmodium falciparum (isolate 3D7)) (UniProt P61075); experiment: Binding affinity to wild-type Plasmodium falciparum full length PK5 (M1 to N288 residues) expressed in mammalian expression system assessed as residual binding level at 10 uM by Kinomescan method relative to control
[15] = target: Phosphatidylinositol 3-kinase C2 domain-containing subunit gamma (Homo sapiens) (UniProt O75747); experiment: Binding affinity to wild-type human partial length PIK3C2G (M1 to I1446 residues) expressed in mammalian expression system assessed as residual binding level at 10 uM by Kinomescan method relative to control
[16] = target: Serine/threonine-protein kinase PknB (Mycobacterium tuberculosis) (UniProt P9WI81); experiment: Binding affinity to wild-type Mycobacterium tuberculosis partial length PKNB (M1 to G279 residues) expressed in mammalian expression system assessed as residual binding level at 10 uM by Kinomescan method relative to control
[17] = target: Serine/threonine-protein kinase PLK3 (Homo sapiens) (UniProt Q9H4B4); experiment: Binding affinity to wild-type human partial length PLK3 (A42 to L334 residues) expressed in mammalian expression system assessed as residual binding level at 10 uM by Kinomescan method relative to control
[18] = target: Serine/threonine-protein kinase PLK4 (Homo sapiens) (UniProt O00444); experiment: Binding affinity to wild-type human partial length PLK4 (M1 to S273 residues) expressed in mammalian expression system assessed as residual binding level at 10 uM by Kinomescan method relative to control
[19] = target: Protein kinase C epsilon type (Homo sapiens) (UniProt Q02156); experiment: Binding affinity to wild-type human partial length PRKCE (A378 to P737 residues) expressed in mammalian expression system assessed as residual binding level at 10 uM by Kinomescan method relative to control
[20] = target: Serine/threonine-protein kinase 35 (Homo sapiens) (UniProt Q8TDR2); experiment: Binding affinity to wild-type human partial length STK35 (G182 to A534 residues) expressed in bacterial expression system assessed as residual binding level at 10 uM by Kinomescan method relative to control
[21] = target: Serine/threonine-protein kinase tousled-like 2 (Homo sapiens) (UniProt Q86UE8); experiment: Binding affinity to wild-type human partial length TLK2 (E424 to N749 residues) expressed in bacterial expression system assessed as residual binding level at 10 uM by Kinomescan method relative to control
[22] = target: Transient receptor potential cation channel subfamily M member 6 (Homo sapiens) (UniProt Q9BX84); experiment: Binding affinity to wild-type human partial length TRPM6 (Q1723 to I1998 residues) expressed in mammalian expression system assessed as residual binding level at 10 uM by Kinomescan method relative to control
[23] = target: Serine/threonine-protein kinase WNK3 (Homo sapiens) (UniProt Q9BYP7); experiment: Binding affinity to wild-type human partial length WNK3 (M1 to D434 residues) expressed in mammalian expression system assessed as residual binding level at 10 uM by Kinomescan method relative to control
[24] = target: Serine/threonine-protein kinase 25 (Homo sapiens) (UniProt O00506); experiment: Binding affinity to wild-type human partial length YSK1 (V14 to H295 residues) expressed in bacterial expression system assessed as residual binding level at 10 uM by Kinomescan method relative to control
NIH3T3 = experiment: Inhibition of erastin-induced ferroptosis in mouse NIH/3T3 cells after 24 hrs by WST-8 assay; format: functional, cell-based; settings: NIH3T3, 24 h

Chain of Transient receptor potential cation channel subfamily M member 6 (Homo sapiens) (Q9BX84 whole entry, the tested form may be a part): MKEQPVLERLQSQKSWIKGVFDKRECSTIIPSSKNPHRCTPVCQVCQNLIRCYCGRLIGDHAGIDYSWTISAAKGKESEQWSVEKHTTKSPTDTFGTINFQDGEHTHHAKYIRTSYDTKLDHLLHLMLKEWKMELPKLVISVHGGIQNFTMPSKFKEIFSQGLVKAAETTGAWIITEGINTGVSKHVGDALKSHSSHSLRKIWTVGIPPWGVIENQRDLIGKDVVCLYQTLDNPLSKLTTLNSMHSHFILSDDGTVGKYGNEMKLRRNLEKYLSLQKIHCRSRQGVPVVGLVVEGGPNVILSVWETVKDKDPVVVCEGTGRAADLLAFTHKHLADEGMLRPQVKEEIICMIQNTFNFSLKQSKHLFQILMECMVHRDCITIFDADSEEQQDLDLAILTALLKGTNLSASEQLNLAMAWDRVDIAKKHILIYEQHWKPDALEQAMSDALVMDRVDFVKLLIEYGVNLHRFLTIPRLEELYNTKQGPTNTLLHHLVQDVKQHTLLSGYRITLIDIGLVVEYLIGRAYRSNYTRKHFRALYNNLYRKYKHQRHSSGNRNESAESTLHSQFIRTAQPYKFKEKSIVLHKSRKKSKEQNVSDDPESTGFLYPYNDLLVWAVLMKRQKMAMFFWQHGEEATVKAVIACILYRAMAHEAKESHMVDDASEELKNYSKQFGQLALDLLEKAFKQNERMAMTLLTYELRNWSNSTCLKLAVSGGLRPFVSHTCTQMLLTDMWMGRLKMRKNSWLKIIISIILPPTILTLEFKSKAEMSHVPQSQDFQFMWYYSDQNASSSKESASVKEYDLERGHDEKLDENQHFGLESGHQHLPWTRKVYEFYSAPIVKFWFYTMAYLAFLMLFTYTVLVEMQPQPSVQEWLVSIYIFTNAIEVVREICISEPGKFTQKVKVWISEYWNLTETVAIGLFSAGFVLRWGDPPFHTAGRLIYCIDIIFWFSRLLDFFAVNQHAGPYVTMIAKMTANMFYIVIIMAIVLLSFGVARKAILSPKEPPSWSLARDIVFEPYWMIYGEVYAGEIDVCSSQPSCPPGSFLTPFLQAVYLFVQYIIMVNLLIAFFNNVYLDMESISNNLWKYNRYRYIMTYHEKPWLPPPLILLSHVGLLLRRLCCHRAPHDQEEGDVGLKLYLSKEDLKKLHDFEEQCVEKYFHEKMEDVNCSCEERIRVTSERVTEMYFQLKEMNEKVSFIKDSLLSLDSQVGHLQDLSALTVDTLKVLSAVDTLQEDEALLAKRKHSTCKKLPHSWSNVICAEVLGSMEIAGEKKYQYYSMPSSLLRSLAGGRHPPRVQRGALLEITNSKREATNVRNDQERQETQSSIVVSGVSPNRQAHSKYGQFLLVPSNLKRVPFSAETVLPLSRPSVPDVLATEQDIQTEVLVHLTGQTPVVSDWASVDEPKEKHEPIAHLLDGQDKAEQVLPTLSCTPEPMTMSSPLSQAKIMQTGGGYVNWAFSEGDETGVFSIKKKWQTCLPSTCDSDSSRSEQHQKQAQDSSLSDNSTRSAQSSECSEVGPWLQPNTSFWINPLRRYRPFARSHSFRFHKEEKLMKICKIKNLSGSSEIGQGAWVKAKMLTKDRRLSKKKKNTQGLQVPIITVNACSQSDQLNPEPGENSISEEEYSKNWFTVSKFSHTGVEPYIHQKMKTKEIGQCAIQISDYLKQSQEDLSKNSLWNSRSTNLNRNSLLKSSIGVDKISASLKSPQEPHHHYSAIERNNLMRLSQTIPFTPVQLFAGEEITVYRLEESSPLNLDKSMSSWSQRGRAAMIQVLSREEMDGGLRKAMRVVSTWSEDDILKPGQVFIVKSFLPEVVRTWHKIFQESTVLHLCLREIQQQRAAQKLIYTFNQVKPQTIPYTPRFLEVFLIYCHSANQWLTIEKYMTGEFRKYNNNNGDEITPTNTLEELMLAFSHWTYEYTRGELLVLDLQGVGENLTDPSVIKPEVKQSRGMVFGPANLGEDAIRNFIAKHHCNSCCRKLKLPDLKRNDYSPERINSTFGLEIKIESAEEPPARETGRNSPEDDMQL
Chain of Cyclin-dependent kinase 2 homolog (Plasmodium falciparum (isolate 3D7)) (P61075 whole entry, the tested form may be a part): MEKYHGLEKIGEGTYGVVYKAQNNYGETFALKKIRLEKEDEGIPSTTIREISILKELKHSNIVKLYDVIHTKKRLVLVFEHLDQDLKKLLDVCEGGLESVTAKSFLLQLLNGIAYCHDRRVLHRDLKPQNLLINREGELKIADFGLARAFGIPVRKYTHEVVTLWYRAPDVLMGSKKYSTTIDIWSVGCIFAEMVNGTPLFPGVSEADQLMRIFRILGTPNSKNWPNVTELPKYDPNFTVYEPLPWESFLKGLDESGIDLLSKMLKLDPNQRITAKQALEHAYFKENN
Chain of Serine/threonine-protein kinase PknB (Mycobacterium tuberculosis) (P9WI81 whole entry, the tested form may be a part): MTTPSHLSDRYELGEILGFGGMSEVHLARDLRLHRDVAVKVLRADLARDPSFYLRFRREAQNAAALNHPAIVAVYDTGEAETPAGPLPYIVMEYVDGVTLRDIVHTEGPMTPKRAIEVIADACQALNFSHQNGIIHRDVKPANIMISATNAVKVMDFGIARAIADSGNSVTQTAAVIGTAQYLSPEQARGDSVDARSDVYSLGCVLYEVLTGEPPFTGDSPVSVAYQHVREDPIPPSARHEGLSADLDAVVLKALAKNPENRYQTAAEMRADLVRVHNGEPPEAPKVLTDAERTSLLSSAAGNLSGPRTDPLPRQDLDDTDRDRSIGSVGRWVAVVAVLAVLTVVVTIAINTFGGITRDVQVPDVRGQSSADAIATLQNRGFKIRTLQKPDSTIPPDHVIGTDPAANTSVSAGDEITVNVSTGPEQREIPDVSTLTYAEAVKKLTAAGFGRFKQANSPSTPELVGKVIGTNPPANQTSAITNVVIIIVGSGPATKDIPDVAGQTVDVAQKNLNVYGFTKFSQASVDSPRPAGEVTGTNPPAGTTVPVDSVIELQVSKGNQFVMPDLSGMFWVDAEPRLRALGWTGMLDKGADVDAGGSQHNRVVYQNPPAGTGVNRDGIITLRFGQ
Chain of Serine/threonine-protein kinase tousled-like 2 (Homo sapiens) (Q86UE8 whole entry, looked up, the tested form may be a part): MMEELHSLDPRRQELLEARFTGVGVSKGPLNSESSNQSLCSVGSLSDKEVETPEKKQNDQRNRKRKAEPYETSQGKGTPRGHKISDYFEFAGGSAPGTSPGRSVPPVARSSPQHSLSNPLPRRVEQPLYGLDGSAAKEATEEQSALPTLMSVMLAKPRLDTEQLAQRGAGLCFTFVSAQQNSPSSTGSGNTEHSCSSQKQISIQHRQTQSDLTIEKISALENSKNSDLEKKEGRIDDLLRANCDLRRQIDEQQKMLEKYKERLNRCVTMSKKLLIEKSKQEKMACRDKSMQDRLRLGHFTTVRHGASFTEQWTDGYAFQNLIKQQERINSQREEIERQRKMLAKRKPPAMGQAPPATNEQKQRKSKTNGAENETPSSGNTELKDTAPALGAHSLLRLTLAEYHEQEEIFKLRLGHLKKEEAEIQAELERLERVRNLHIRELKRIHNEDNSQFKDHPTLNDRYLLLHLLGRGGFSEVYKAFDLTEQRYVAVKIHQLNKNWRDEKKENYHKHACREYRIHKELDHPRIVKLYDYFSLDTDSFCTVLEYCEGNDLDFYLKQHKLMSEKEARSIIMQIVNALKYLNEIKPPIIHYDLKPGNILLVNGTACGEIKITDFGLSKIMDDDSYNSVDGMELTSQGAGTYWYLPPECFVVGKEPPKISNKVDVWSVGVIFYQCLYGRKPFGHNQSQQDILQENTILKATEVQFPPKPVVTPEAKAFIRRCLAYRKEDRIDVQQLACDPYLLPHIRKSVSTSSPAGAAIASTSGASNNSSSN
Chain of Tyrosine-protein kinase FRK (Homo sapiens) (P42685 whole entry, the tested form may be a part): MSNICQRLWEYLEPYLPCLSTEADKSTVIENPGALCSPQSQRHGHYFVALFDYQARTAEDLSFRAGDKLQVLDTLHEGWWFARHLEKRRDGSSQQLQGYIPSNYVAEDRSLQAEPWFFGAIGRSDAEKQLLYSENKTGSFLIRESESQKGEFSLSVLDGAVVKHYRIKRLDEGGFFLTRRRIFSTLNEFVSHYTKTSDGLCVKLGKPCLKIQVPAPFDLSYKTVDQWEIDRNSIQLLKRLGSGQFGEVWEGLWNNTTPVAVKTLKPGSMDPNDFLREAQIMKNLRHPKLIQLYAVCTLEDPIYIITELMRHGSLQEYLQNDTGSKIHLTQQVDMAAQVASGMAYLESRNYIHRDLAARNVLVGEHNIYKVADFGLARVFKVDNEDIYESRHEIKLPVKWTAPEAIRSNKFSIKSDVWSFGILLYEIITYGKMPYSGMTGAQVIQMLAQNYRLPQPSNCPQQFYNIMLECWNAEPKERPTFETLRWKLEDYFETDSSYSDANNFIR
Chain of Calcium/calmodulin-dependent protein kinase type 1 (Homo sapiens) (Q14012 whole entry, looked up, the tested form may be a part): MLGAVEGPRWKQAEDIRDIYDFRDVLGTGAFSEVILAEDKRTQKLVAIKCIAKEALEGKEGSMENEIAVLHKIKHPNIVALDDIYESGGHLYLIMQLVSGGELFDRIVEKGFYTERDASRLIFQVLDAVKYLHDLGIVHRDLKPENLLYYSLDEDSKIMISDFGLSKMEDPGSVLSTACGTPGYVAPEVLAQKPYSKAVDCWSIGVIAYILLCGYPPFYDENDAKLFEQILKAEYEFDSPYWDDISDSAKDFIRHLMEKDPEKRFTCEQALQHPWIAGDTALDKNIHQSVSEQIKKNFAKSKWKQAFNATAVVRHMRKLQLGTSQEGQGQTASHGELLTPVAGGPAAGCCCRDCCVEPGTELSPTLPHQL
Chain of Cyclin-dependent kinase 3 (Homo sapiens) (Q00526 whole entry, looked up, the tested form may be a part): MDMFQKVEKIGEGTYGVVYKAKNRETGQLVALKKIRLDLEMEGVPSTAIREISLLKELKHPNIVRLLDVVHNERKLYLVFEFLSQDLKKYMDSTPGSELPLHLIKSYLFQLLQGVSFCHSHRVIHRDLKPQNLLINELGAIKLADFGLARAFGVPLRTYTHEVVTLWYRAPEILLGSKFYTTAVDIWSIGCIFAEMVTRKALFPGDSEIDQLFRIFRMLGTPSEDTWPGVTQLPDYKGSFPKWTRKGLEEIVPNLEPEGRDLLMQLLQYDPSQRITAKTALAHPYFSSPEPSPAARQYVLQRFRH

## CC(C)N1C(=O)C(NCCCN(C)C)=C(c2cn(C)c3ccccc23)C1=O.Cl
[1]
  Activity: 98%
[2]
  Activity: 100%
[3]
  Activity: 100%
[4]
  Activity: 99%
[5]
  Activity: 87%
[6]
  Activity: 90%
[7]
  Activity: 95%
[8]
  Activity: 79%
[9]
  Activity: 100%
[10]
  Activity: 97%
[11]
  Activity: 77%
[12]
  Activity: 90%
[13]
  Activity: 100%
[14]
  Activity: 87%
[15]
  Activity: 84%
[16]
  Activity: 91%
[17]
  Activity: 100%
[18]
  Activity: 97%
[19]
  Activity: 94%
[20]
  Activity: 100%
[21]
  Activity: 84%
[22]
  Activity: 97%
[23]
  Activity: 78%
[24]
  Activity: 94%
NIH3T3
  IC50: 1900 nM
